Patent US20110176998A1, “IMAGING AND THERAPY OF VIRUS-ASSOCIATED TUMORS” (THE JOHNS HOPKINS UNIVERSITY, priority 2007, published 2011)
Entries after “also recorded” stand apart in the source; their conditions may differ. Read-outs that look alike come from different tables or passages of the source.

Key:
[1] = tested on: Zta promoter; assay type: cell-based, Epstein-Barr virus; details: for known lytic inducer re-identified / hit in epithelial promoter reporter assay: library screen at 10 uM
[2] = tested on: recombinant EBV encoding GFP (BX-1) in AKATA-BX1 cells; assay: GFP whole virus assay in AKATA-BX1 cells
[3] = tested on: CMV promoter driven GFP in Hela cells
[4] = tested on: BZLF1 protein (ZTA); assay: Western blot / immunoblot for ZTA (BZLF1 protein) in EBV positive cell lines; assay type: cell-based, Epstein-Barr virus; details: for BZLF protein expression: SNU719, AKATA, Raji, LCL and Rael cells
Experimental: To detect expression of the EBV-TK or EBV-ZTA, total cell protein was first extracted by treating cells with lysis buffer (0.05 M Tris, pH 7.6, 0.15 M NaCl, 1% triton-X 100, 2 mM EDTA) containing protease inhibitors for 10 minutes at 4° C. The following reagents were added to 1 mL of lysis buffer: 2 μL leupeptin (5 mg/mL), 1 μL 0.2 M Na3VO4, 1 μL NaF, 1 μL aprotinin (10 mg/ml), 1 μL, pepstatin (2 mM), and 10 μL PMSF (100 mM) for 10 minutes at 4° C. Following centrifugation, the supernatant was collected and stored at −80° C. Protein concentration was determined with the BCA Protein Assay Kit (Pierce, Rockford, Ill.) according to the manufacturer's instructions. A 10 μg aliquot of total cellular protein was fractionated on a 7.5% SDS-polyacrylamide gel. Proteins were transferred to PROTRAN nitrocellulose membrane (Schleicher & Schuell, Keene, N.H.). The membranes were blocked with 5% blotting grade non-fat dry milk (Bio-rad, Hercules, Calif.) in PBS with 0.1% TWEEN-20 (PBS-T) at 4° C. overnight. The membranes were then washed with PBS-T twice followed by incubation with 1/1,000-diluted rabbit anti-TK sera from a rabbit immunized with a synthetic EBV-TK peptide ([…]) or anti-ZTA monoclonal antibody (Argene, North Massapequa, N.Y.) at room temperature for 1 hour. After washing, the membranes were incubated with HRP-conjugated goat anti-rabbit IgG antibodies or HRP-conjugated goat anti-mouse IgG antibodies (Amersham Pharmacia Biotech, Piscataway, N.J.) at a 1/5,000 dilution in PBS-T at room temperature for 1 hour. The membranes were washed twice and proteins were detected with ECL Western Blotting Detection reagents (Amersham Pharmacia Biotech). The membranes were exposed to X-OMAT film (Kodak, Rochester, N.Y.) at room temperature.
For lytic induction studies, cells were seeded at 10^6/ml, and treated with test compounds for 48 hours. Control untreated cells were incubated in parallel.
Cells were washed with PBS twice. Total cellular protein was extracted with lysis buffer. Proteins were electrophoresed in polyacrylamide and then transferred onto a PROTRAN nitrocellulose membrane (Schleicher&Schuell, Keene, N.H.). Blots were probed with primary antibody (Ab) overnight at 4° C. HRP-conjugated secondary Ab was added after washing and detected by an enhanced chemiluminescence system (ECL) (Amersham). The following antibodies were used: anti-ZTA (Argene), anti-f3-actin (Sigma), anti-mouse (Sigma).

[5] = tested on: EBV viral DNA copy number; assay: real-time PCR for EBV viral DNA copy number (viral replication); assay type: cell-based, Epstein-Barr virus; details: for lytic protein expression or viral replication: B cells or gastric epithelial cells (SNU 719)
Experimental: Genomic DNA from treated cells were extracted with the QIAamp DNA mini kit (Qiagen, CA) according to the manufacturer's instructions. PCRs were set up in a volume of 50 μL with a TaqMan PCR core reagent kit (Perkin-Elmer Corp., Branchburg, N.J.). Fluorescent probes were custom synthesized by Perkin-Elmer Applied Biosystems. PCR primers were synthesized by Gibco BRL (Frederick, Md.). Each reaction contained 5 μL of 10× buffer A (4 mM MgCl2), amplification primers (300 nM), fluorescent probe (25 nM), dATP, dCTP, and dGTP (200 μM each), dUTP (400 uM), 1.25 U of AmpliTaq Gold, and 0.5 U of AmpErase uracil N-glycosylase. Extracted genomic DNA was used for amplification. DNA amplification was carried out in a 96-well reaction plate in a Perkin-Elmer Applied Biosystems 7700 sequence detector. Each sample was analyzed in duplicate, and multiple negative water blanks were included in each analysis. A calibration curve was run in parallel and in duplicate with each analysis, with DNA extracted from the EBV-positive cell line Namalwa as a standard.
The EBV genome was quantified by real-time PCR with the ICycler system (Biorad, Hercules, Calif.). Template DNA was extracted with a mini blood DNA Kit (Qiagen, Valencia, Calif.). […]. A calibration curve was run in parallel and in duplicate with each analysis, using DNA extracted from the diploid EBV-positive cell line Namalwa containing two integrated viral genomes per cell as a standard. Amplification data were collected with an MyiQ single color real-time PCR Detector (Biorad) and analyzed with the MyiQ software developed by Biorad.

[6] = tested on: EBV-TK functional activity in Burkitt's lymphoma cell lines; assay: in vitro [14C]FIAU cell uptake after bortezomib; assay type: cell-based, Epstein-Barr virus
Experimental: For in vitro [^14C]FIAU uptake studies, cells were seeded at 5×10^5 cells/mL and incubated with 10 nM bortezomib at 37° C. for 6-12 hrs. They were washed and then incubated with 0.04 μCi/mL [^14C]FIAU at 37° C. for 2, 4, 8, 24, 48, 72 hours. Cells were pelleted by centrifugation and washed with unlabeled FIAU. Radioactivity of the isolated cells and pooled medium with washes were then counted separately by scintillation counting with a Beckman Coulter LS5000TA scintillation counter (Fullerton, Calif.). Total cellular protein was extracted by incubating in lysis buffer (0.05 M Tris, pH 7.6, 0.15 M NaCl, 1% triton-X 100, 2 mM EDTA) and cell debris were removed by centrifugation. The supernatant was collected and the protein concentration was determined with the BCA protein assay kit (Pierce, Rockford, Ill.) according to the manufacturer's instructions. Cell uptake was expressed as the accumulation ratio, that is, the counts per minute per gram (cpm/g) of cells divided by the cpm/g (mL) of medium.

[7] = administered to patients for imaging; cited from earlier work

O=c1[nH]cc(F)c(=O)[nH]1 [5-FU]
known lytic inducer re-identified / hit in epithelial promoter reporter assay [1]: verified

Nc1ncn([C@H]2C[C@H](O)[C@@H](CO)O2)c(=O)n1 [5′-azadeoxycytidine, 5-Aza-2′-deoxycytidine]
Zta promoter luciferase activity ([1]; AGS cells): did not activate; also recorded: not activated | GFP signal ([2]; AKATA-BX1 cells): induced | GFP signal in control cell line [3]: not activated

[Cl][Co][Cl] [Cobalt chloride]
known lytic inducer re-identified / hit in epithelial promoter reporter assay [1]: missed | known lytic inducer re-identified / hit in lymphoma cell line/whole virus assay ([2]; library screen at 10 uM): missed

COc1cccc2c1C(=O)c1c(O)c3c(c(O)c1C2=O)C[C@@](O)(C(=O)CO)C[C@@H]3O[C@H]1C[C@H](N)[C@H](O)[C@H](C)O1 [Doxorubicin]
known lytic inducer re-identified / hit in epithelial promoter reporter assay [1]: verified | known lytic inducer re-identified / hit in lymphoma cell line/whole virus assay ([2]; library screen at 10 uM): verified

CC(C(=O)O)c1ccc(N2Cc3ccccc3C2=O)cc1 (centres unmarked) [Indoprofen]
induction of BZLF1 promoter ([1]; AGS cells, 10 μM): can induce | ZTA expression ([4]; SNU719 cells, high dose): induced | EBV viral replication ([5]; SNU719 cells): not viral replication; also recorded: did not induce

Cc1oncc1C(=O)Nc1ccc(C(F)(F)F)cc1 [Leflunomide, N-(4′-trifluoromethylphenyl)-5-methylisoxazole-4-carboxamide]
BZLF protein expression [4]: did not induce | lytic protein expression or viral replication [5]: don't induce

CN(Cc1cnc2nc(N)nc(N)c2n1)c1ccc(C(=O)N[C@@H](CCC(=O)O)C(=O)O)cc1 [Methotrexate]
known lytic inducer re-identified / hit in epithelial promoter reporter assay [1]: verified

CCCCCCCCCCCCCC(=O)O[C@@H]1[C@@H](C)[C@@]2(O)[C@@H](C=C(CO)C[C@]3(O)C(=O)C(C)=C[C@@H]23)[C@@H]2C(C)(C)[C@]12OC(C)=O [PMA]
known lytic inducer re-identified / hit in epithelial promoter reporter assay [1]: verified | known lytic inducer re-identified / hit in lymphoma cell line/whole virus assay ([2]; library screen at 10 uM): verified

CC(C)[C@H](CO)Nc1nc(Nc2cccc(Cl)c2)c2ncn(C(C)C)c2n1 [Purvalanol A]
inhibition of EBV immediate early gene ZTA expression ([4]; AKATA-BX1, anti-IgG induction): inhibited | inhibition of GFP signal after lytic induction ([2]; AKATA-BX1 cells induced with anti-IgG): specifically inhibited

CCCC(=O)[O-].[Na+] [Sodium butyrate]
known lytic inducer re-identified / hit in epithelial promoter reporter assay [1]: missed | known lytic inducer re-identified / hit in lymphoma cell line/whole virus assay ([2]; library screen at 10 uM): missed

CCCCCCCCCCCCCC(=O)O[C@@H]1[C@@H](C)[C@@]2(O)[C@@H](C=C(CO)C[C@]3(O)C(=O)C(C)=C[C@@H]23)[C@@H]2C(C)(C)[C@]12OC(C)=O [TPA, phorbol 12-tetradecanoate 13-acetate]
Zta promoter luciferase activity ([1]; AGS cells): activated | GFP signal in control cell line [3]: not activated

CC(=O)O[C@H]1C(=O)[C@@]2(C)[C@H]([C@H](OC(=O)c3ccccc3)[C@]3(O)C[C@H](OC(=O)[C@H](O)[C@@H](NC(=O)c4ccccc4)c4ccccc4)C(C)=C1C3(C)C)[C@]1(OC(C)=O)CO[C@@H]1C[C@@H]2O [Taxol]
known lytic inducer re-identified / hit in epithelial promoter reporter assay [1]: verified

COc1ccc(C=CC(=O)Nc2ccccc2C(=O)O)cc1OC [Tranilast, N-(3,4-dimethoxycinnamoyl)anthranilic acid]
BZLF protein expression [4]: did not induce | lytic protein expression or viral replication [5]: don't induce

O=c1[nH][14c](=O)n([C@@H]2O[C@H](CO)[C@@H](O)[C@@H]2F)cc1I [[^14C]FIAU, [2-^14C]2′-Fluoro-2′-deoxy-β-D-5-iodouracil-arabinofuranoside]
accumulation of [14C]FIAU ([6]; EBV(+) Akata and EBV(+) Rael cells following treatment with bortezomib): increased | accumulation of [14C]FIAU ([6]; EBV(−) Akata cells following treatment with bortezomib): not

O=c1[nH]c(=O)n([C@@H]2O[C@H](CO)[C@@H](O)[C@@H]2F)cc1[125I] [[^124I]FIAU, 2′-fluoro-2′deoxy-1-beta-D-arabinofuranosyl-5-iodo-uracil]
effect on hepatic function [7]: without any adverse effect on hepatic function

CCCC(=O)O [butyrate]
Zta promoter luciferase activity ([1]; AGS cells): activated

N.N.[Cl][Pt][Cl] [cis-platinum]
known lytic inducer re-identified / hit in epithelial promoter reporter assay [1]: verified

CC[C@H](C)C(=O)O[C@H]1C[C@@H](C)C=C2C=C[C@H](C)[C@H](CC[C@@H]3C[C@@H](O)CC(=O)O3)[C@H]21 [lovastatin]
suppression hits in GFP whole virus assay ([2]; library screen at 10 uM, picked after day 10): suppression hits

CCCC(CCC)C(=O)O [valproate]
Zta promoter luciferase activity ([1]; AGS cells): activated | Zta promoter luciferase activity ([1]; AGS cells, listed as valproic acid): increased expression of luciferase in a dose-dependent manner

Arginine butyrate
known lytic inducer re-identified / hit in epithelial promoter reporter assay [1]: missed | known lytic inducer re-identified / hit in lymphoma cell line/whole virus assay ([2]; library screen at 10 uM): missed
